Legend:
α1β2γ2 GABA-A receptor = target: T1, α1β2γ2 GABA-A receptor (Homo sapiens, UniProt P14867+P18507); assay: Electrophysiological studies (QPatch16X automated patch-clamp), PAM efficacy; format: cell-based
T1 construct: expressed in transfected cells

[1] = Metabolic stability in human liver microsomes; format: in vitro ADME
Experimental: In Eppendorf tubes, potassium phosphate buffer (pH 7.4), a working solution of the test compound, and human liver microsomes (final concentration: 0.4 mg/mL, Sigma-Aldrich) were combined. The mixture was incubated at 37 °C with shaking for 15 min in a thermoblock. Following this, an NADPH regeneration system (Sigma-Aldrich) was added to the mixture, which was subsequently incubated with shaking at 37 °C for various time intervals (5, 15, 30, 60, 90, 120, 150, 180, 210, and 240 min). A control experiment was run in parallel, replacing the regeneration fraction with phosphate buffer. At the designated incubation times, an internal standard (levallorphan, Sigma-Aldrich) was added to each sample. To terminate the reaction, 70% perchloric acid (Sigma-Aldrich) was added, and the samples were centrifuged at 6000 rpm for 10 min at 4 °C. The resulting supernatants were collected and subjected to LC-MS/MS analysis. Each sample was analyzed in duplicate.

[2] = Metabolic stability in mouse liver microsomes; format: in vitro ADME
[3] = Metabolic stability in rat liver microsomes; format: in vitro ADME
MDR1-MDCKII cell line = assay: A–B and B–A permeability assay in MDR1-MDCKII cell line; settings: MDCK-MDR1 permeability assay
Experimental: (§1) The A–B and B–A permeability assay using the MDR1-MDCKII cell line was conducted at Eurofins Discovery according to a well-established protocol.

[4] = test system: P-glycoprotein (P-gp, MDR1); assay: as above; settings: dog
Experimental: as §1

SH-SY5Y cells [5] = assay: Intracellular calcium concentration after 6-OHDA (Fluo-4); format: cell-based, human; settings: 50 μM pretreatment 1 h, then 6-OHDA 250 μM 1 h
Experimental: (§2) 7 (A). Effect of 6-Hydroxydopamine (6-OHDA) on intracellular calcium concentration [Ca^2+] determined by Fluo-4 AM. After pretreatment with tested compounds (50 μM) or vehicle (0.5% DMSO, v/v) for 1 h, the cells were incubated with 6-Hydroxydopamine (6-OHDA, 250 μM) for 1 h. 6-OHDA control: cells treated with 250 μM of 6-OHDA. […]. DMSO control: cells treated with 0.5% DMSO only. Data are presented as the mean ± SD from 2–3 independent experiments. Experiments were carried on with ImageXpress Micro XLS (Molecular Devices). (B) The level of ROS generation was determined by Cell ROX dye. After pretreatment with tested compounds (50 μM) or vehicle (0.5% DMSO, v/v) for 1 h, the cells were incubated with hydrogen peroxide (H2O2, 300 μM) for 1 h. H2O2 control: cells treated with H2O2 (300 μM). DMSO control: cells treated with 0.5% DMSO only. Data are presented as the mean ± SD from 2–3 independent experiments. Experiments were carried on with the ImageXpress Micro XLS (Molecular Devices).
The SH-SY5Y human neuroblastoma cell line was maintained according to established protocols. The cells, obtained from the American Type Culture Collection (ATCC), were cultured in Dulbecco’s Modified Eagle’s Medium (DMEM, high glucose; Thermo Fisher), supplemented with 10% fetal bovine serum (Thermo Fisher), 100 IU/ml penicillin (Merck), and 100 μg/mL streptomycin (Merck). They were grown in 75 cm^2 flasks (Nunc) at 37 °C in a humidified atmosphere containing 5% CO2. For compound evaluation, SH-SY5Y cells were plated in 96-well plates (Falcon) at a density of 2 × 10^4 cells per well. The cells were allowed to adhere and grow for 24 h in an incubator set to 37 °C and 5% CO2 before starting the experiments. Stock solutions of both test and reference compounds were prepared at a concentration of 10^–2 M. A minimum of 1 mg of each compound was dissolved in dimethyl sulfoxide (DMSO). Serial dilutions were made in DMSO, then further diluted in PBS, mixed, and added to the cell culture medium.
The intracellular Ca^2+ levels were assessed using a homogeneous cell-based assay with the Fluo-4 Direct Calcium Assay Kit (Thermo Fisher). Following incubation with the tested compounds, the supernatant was discarded, and the cells were incubated with 1 μM Fluo-4/AM in FluoroBrite DMEM (Thermo Fisher) for 1 h at 37 °C. The results were expressed as a percentage relative to the control (DMSO). Fluorescence intensity was recorded using the ImageXpress Micro XLS system (Molecular Devices).

SH-SY5Y cells [6] = assay: ROS generation after hydrogen peroxide (CellROX); format: cell-based, human; settings: 50 μM pretreatment 1 h, then H2O2 300 μM 1 h
Experimental: as §2
The SH-SY5Y human neuroblastoma cell line was maintained according to established protocols. […]
Cellular reactive oxygen species (ROS) levels were determined using the CellROX Deep Red Reagent (Thermo Fisher). […] The results were expressed as a percentage relative to the control (DMSO). Fluorescence intensity was measured using the ImageXpress Micro XLS system (Molecular Devices).

SH-SY5Y cells [7] = assay: ToxiLight assay (cell membrane damage); format: cell-based; settings: Table S1, 24 h
Experimental: Damage to the cell membrane was assessed using the bioluminescent ToxiLight bioassay (Lonza), a profound method for detecting cell toxicity. Following 24 h of treatment, 5 μL of the supernatant above the sediment was transferred to a 384-well plate (PerkinElmer). Subsequently, 20 μL of Adenylate Kinase Detection Reagent (AKDR) was added to each well. Luminescence was recorded after a 10 min incubation period using a POLARstar Omega plate reader (BMG Labtech). Results are presented as a percentage relative to the control sample (cells lysed), reflecting the proportion of dead cells compared to the control.
(§3) 1. Cytotoxicity studies for selected compounds
Table S1. The viability of the cells SH-SY5Y after treatment with tested compounds for 24 the results are expressed as a percentage of dead cells with luminescence ToxiLight Assay. The results are expressed as a per cent of control with whole lysis cells. N.C. not countable […]
Table S2. The viability of the cells SH-SY5Y after treatment with tested compounds for 24 h the results are expressed as a percentage of live cells with fluorescence PrestoBlue Assay. The results are expressed as a per cent of vehicle (DMSO). […]

SH-SY5Y cells [8] = assay: PrestoBlue cell viability assay; format: cell-based; settings: Table S2, 24 h
Experimental: Cell viability was determined using the Presto Blue reagent (ThermoFisher) following the manufacturer’s instructions.
as §3
Table S1. The viability of the cells SH-SY5Y after treatment with tested compounds for 24 the results are expressed as a percentage of dead cells with luminescence ToxiLight Assay. The results are expressed as a per cent of control with whole […]
percentage of live cells with fluorescence PrestoBlue Assay. The results are expressed as a per cent of vehicle (DMSO).

GABA-A receptor = assay: Radioligand binding at the GABA-A receptor; set-up: species or system rat; settings: mean of two-three independent experiments; read-out: GABA-A Ki ± SEM
Experimental: The study was conducted in accordance with previously established protocols, and performed in duplicate. Rat brains were homogenized and prepared following the described methodologies. The assay was carried out directly on 96-well microplates containing 50 mM Tris-HCl buffer (pH 7.4) in a total volume of 300 μL. […] To determine nonspecific binding, 100 μM GABA was included in the mixture. The 96-well microplates were incubated at 0 °C for 10 min, followed by rapid filtration through FilterMate B glass fiber filters (PerkinElmer, USA) using a Harvester-96 MACH III FM (Tomtec, USA). The filters were gently dried in a microwave and sealed in plastic bags (PerkinElmer, USA). Each filter was then immersed in 10 mL of Ultima Gold MV liquid scintillation cocktail (PerkinElmer, USA). […] Ki values were calculated using the Cheng and Prusoff equation, and statistical analyses were conducted using GraphPad Prism (version 4.0, San Diego, CA, USA)

PAMPA permeability assay = format: in vitro ADME; settings: PBS pH 7.4, 100 μM, 5 h, zolpidem tested as tartrate
Experimental: PAMPA. The precoated PAMPA Plate System Gentest, obtained from Corning (Tewksbury, MA, USA), was used for the permeability study. The system includes a 96-well receiver filter plate precoated with structured phospholipid layers and a matching donor microplate. Stock solutions of the test compounds and reference drugs were prepared in PBS buffer (pH 7.4) at a final concentration of 100 μM. Each compound solution (200 μL) was added to the donor wells and incubated at room temperature for 5 h. The quantity of molecules that penetrated from the donor wells to the acceptor wells through the phospholipid membrane was determined using UPLC-MS spectrometry (Waters ACQUITY TQD system with the TQ Detector, Waters, Milford, USA) with an internal standard. Permeability coefficients (Pe, cm/s) were calculated according to the formula provided by the manufacturer.

[9] = literature value; cited from earlier work

T1 sequence (P14867 28-456): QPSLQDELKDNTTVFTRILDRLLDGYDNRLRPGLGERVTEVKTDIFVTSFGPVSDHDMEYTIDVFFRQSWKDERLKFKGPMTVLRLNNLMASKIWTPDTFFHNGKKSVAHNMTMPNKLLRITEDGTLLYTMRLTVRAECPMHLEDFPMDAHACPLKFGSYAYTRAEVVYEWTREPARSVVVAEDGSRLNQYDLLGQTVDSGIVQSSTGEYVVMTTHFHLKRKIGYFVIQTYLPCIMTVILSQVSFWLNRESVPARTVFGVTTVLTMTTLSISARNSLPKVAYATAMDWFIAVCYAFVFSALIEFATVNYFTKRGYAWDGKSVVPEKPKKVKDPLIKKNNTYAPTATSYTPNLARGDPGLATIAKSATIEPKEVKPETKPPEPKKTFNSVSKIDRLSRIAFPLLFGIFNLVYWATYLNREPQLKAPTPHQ
T1 sequence (P47870 25-512 partner limits assumed): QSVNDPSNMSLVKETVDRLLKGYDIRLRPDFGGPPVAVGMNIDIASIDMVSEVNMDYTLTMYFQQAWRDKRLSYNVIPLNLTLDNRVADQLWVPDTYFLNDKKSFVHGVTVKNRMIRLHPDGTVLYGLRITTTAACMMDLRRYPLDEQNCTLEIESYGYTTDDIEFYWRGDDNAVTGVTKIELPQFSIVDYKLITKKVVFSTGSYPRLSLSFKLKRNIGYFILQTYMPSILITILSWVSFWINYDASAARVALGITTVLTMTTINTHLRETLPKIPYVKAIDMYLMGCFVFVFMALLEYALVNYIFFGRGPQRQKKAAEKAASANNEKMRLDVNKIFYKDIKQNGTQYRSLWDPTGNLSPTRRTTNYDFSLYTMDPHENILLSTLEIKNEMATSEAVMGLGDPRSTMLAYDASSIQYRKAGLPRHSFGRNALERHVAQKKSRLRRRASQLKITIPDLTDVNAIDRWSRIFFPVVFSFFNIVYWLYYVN
T1 sequence (P18507 40-475): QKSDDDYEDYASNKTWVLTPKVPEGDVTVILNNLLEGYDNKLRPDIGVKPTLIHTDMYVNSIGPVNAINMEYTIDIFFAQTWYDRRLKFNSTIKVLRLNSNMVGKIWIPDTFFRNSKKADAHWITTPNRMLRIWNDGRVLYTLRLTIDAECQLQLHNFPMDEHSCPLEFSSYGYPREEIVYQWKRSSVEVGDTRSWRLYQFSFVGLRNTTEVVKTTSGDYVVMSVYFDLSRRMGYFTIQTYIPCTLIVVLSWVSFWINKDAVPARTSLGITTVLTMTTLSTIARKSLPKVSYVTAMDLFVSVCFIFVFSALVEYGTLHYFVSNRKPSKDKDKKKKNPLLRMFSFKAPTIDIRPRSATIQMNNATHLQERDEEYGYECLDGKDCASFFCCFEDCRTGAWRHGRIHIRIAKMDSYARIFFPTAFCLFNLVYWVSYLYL

## Cc1ccc2nc(-c3ccc(F)cc3)c(CC(=O)N3CC(C)NC(C)C3)n2c1 (stereo not shown) [Compound 6, 1-(3,5-Dimethylpiperazin-1-yl)-2-[2-(4-fluorophenyl)-6-methylimidazo[1,2-a]pyridin-3-yl]ethan-1-one]
α1β2γ2 GABA-A receptor
  EC50: 872 ± 77 nM
[1]
  t0,5 HLMs: >60 min
[1]; human, liver microsomes, pH 7.4, after 15 min of biotransformation, read-out: % remaining of the parent compound HLMs
  remaining at 0.25 h: 74%
[1]; human, liver microsomes, pH 7.4, read-out: Clint HLMs
  microsomal CLint: < 40 µL/min/mg
[2]
  t0,5 MLMs: 58 min
[2]; mouse, liver microsomes, pH 7.4, after 15 min of biotransformation, read-out: % remaining of the parent compound MLMs
  remaining at 0.25 h: 68%
[2]; mouse, liver microsomes, pH 7.4, read-out: Clint MLMs
  microsomal CLint: < 40 µL/min/mg
[3]
  t0,5 RLMs: 44 min
[3]; rat, liver microsomes, pH 7.4, after 15 min of biotransformation, read-out: % remaining of the parent compound RLMs
  remaining at 0.25 h: 70%
[3]; rat, liver microsomes, pH 7.4, read-out: Clint RLMs
  microsomal CLint: < 40 µL/min/mg
MDR1-MDCKII cell line
  Substrate for P-glycoprotein (P-gp) efflux: possible substrate
[4]; MDCK-MDR1, pH 7.4
  Papp A→B at 10 μM: 14.5 ×10⁻⁶ cm/s
  Papp B→A at 10 μM: 24.6 ×10⁻⁶ cm/s
[4]; MDCK-MDR1, pH 7.4, Efflux ratio (Paap B–A/A–B), pH 7.4/7.4, 6 and 17 at 10 μM
  efflux ratio at 10 μM: 1.68
SH-SY5Y cells [5]
  Reduction of intracellular calcium levels: 28%
SH-SY5Y cells [6]
  Decrease of ROS levels: 32%
SH-SY5Y cells [7]; 1E-04 M
  X [%], percentage of dead cells, ToxiLight Assay (per cent of control with whole lysis cells): 74%
SH-SY5Y cells [7]; 1E-05 M
  X [%], percentage of dead cells, ToxiLight Assay (per cent of control with whole lysis cells): 93%
SH-SY5Y cells [7]; 1E-06 M
  X [%], percentage of dead cells, ToxiLight Assay (per cent of control with whole lysis cells): 109%
SH-SY5Y cells [7]; 1E-07 M
  X [%], percentage of dead cells, ToxiLight Assay (per cent of control with whole lysis cells): 97%
SH-SY5Y cells [7]; 1E-08 M
  X [%], percentage of dead cells, ToxiLight Assay (per cent of control with whole lysis cells): 108%
SH-SY5Y cells [7]; 1E-09 M
  X [%], percentage of dead cells, ToxiLight Assay (per cent of control with whole lysis cells): 101%
SH-SY5Y cells [7]; 3E-05 M
  X [%], percentage of dead cells, ToxiLight Assay (per cent of control with whole lysis cells): 87%
SH-SY5Y cells [7]; 3E-06 M
  X [%], percentage of dead cells, ToxiLight Assay (per cent of control with whole lysis cells): 105%
SH-SY5Y cells [8]; 1E-05 M
  X [%], percentage of live cells, PrestoBlue Assay (per cent of vehicle DMSO): 17%
SH-SY5Y cells [8]; 1E-06 M
  X [%], percentage of live cells, PrestoBlue Assay (per cent of vehicle DMSO): 16%
SH-SY5Y cells [8]; 1E-07 M
  X [%], percentage of live cells, PrestoBlue Assay (per cent of vehicle DMSO): 17%
SH-SY5Y cells [8]; 1E-08 M
  X [%], percentage of live cells, PrestoBlue Assay (per cent of vehicle DMSO): 18%
SH-SY5Y cells [8]; 1E-09 M
  X [%], percentage of live cells, PrestoBlue Assay (per cent of vehicle DMSO): 17%
SH-SY5Y cells [8]; 3E-05 M
  X [%], percentage of live cells, PrestoBlue Assay (per cent of vehicle DMSO): 17%
SH-SY5Y cells [8]; 3E-06 M
  X [%], percentage of live cells, PrestoBlue Assay (per cent of vehicle DMSO): 16%

## Cc1ccc(-c2nc3ccc(C)cn3c2CC(=O)N(C)C)cc1 [zolpidem, reference compound]
GABA-A receptor
  Ki: 37.8 ± 2.7 nM
PAMPA permeability assay
  Permeability Pe ± SD: 21.6 ± 1.26 ·10^–6 cm/s
SH-SY5Y cells [5]
  Reduction of intracellular calcium levels: 47%
SH-SY5Y cells [7]; 1E-04 M
  X [%], percentage of dead cells, ToxiLight Assay (per cent of control with whole lysis cells): 71%
SH-SY5Y cells [7]; 1E-05 M
  X [%], percentage of dead cells, ToxiLight Assay (per cent of control with whole lysis cells): 92%
SH-SY5Y cells [7]; 1E-06 M
  X [%], percentage of dead cells, ToxiLight Assay (per cent of control with whole lysis cells): 98%
SH-SY5Y cells [7]; 1E-07 M
  X [%], percentage of dead cells, ToxiLight Assay (per cent of control with whole lysis cells): 100%
SH-SY5Y cells [7]; 1E-08 M
  X [%], percentage of dead cells, ToxiLight Assay (per cent of control with whole lysis cells): 101%
SH-SY5Y cells [7]; 1E-09 M
  X [%], percentage of dead cells, ToxiLight Assay (per cent of control with whole lysis cells): 100%
SH-SY5Y cells [7]; 3E-05 M
  X [%], percentage of dead cells, ToxiLight Assay (per cent of control with whole lysis cells): 90%
SH-SY5Y cells [7]; 3E-06 M
  X [%], percentage of dead cells, ToxiLight Assay (per cent of control with whole lysis cells): 96%
[9]
  plasma half-life (t0,5) in humans: 2–3 h and ≈ 2 h
